From PubChem BioAssay (NCI)
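These data come from cells grown in 96-well plates and exposed to compound for 48 hours at five concentrations. Abbreviation: GI50, concentration required for 50% inhibition of growth. TGI denotes the concentration required for complete inhibition of growth.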

How the values were obtained:
Experiment in all cases: DTP human tumour cell line panel, 48 h
[1] = tested on: MDA-MB-435
[2] = tested on: CCRF-CEM leukemia
[3] = tested on: HCT-15 colon
[4] = tested on: UO-31 renal
[5] = tested on: MALME-3M melanoma
[6] = tested on: MDA-MB-231 breast
[7] = tested on: MOLT-4 leukemia
[8] = tested on: OVCAR-4 ovarian
[9] = tested on: SK-MEL-28 melanoma
[10] = tested on: SW-620 colon

## c1ccc2nc3[nH]c4ccccc4c3cc2c1
[1]
  TGI: 1.97 µM
[2]
  TGI: > 100 µM
[3]
  TGI: 1.38 µM
[4]
  TGI: 13.1 µM
[5]
  TGI: 2.12 µM
[6]
  TGI: 2.64 µM
[7]
  TGI: 1.36 µM
[8]
  TGI: 2.79 µM

## CC(C)(C)c1cc(-c2ccc(-c3cc(C(C)(C)C)c(O)c(C(C)(C)C)c3)cc2)cc(C(C)(C)C)c1O
[1]
  TGI: > 100 µM
[3]
  TGI: > 100 µM
[4]
  TGI: > 100 µM
[5]
  TGI: > 100 µM
[9]
  TGI: > 100 µM
[6]
  TGI: > 100 µM
[7]
  TGI: > 100 µM
[8]
  TGI: > 100 µM
[10]
  TGI: > 100 µM

## CC(C)(C)NC(NC(C)(C)C)=C(C(Cl)=C(Cl)Cl)[N+](=O)[O-]
[2]
  TGI: > 100 µM
[3]
  TGI: > 100 µM
[4]
  TGI: > 100 µM
[5]
  TGI: > 100 µM
[9]
  TGI: > 100 µM
[6]
  TGI: > 100 µM
[7]
  TGI: > 100 µM
[8]
  TGI: > 100 µM
[10]
  TGI: > 100 µM

## C=C(C)C1Cc2c(cc(O)c3c(=O)c4ccccc4n(C)c23)O1 (stereo not drawn)
[2]
  TGI: > 100 µM
[3]
  TGI: > 100 µM
[5]
  TGI: > 100 µM
[9]
  TGI: > 100 µM
[7]
  TGI: > 100 µM
[8]
  TGI: 26.7 µM
[10]
  TGI: > 100 µM

## CCOC(=O)CCC(NC(=O)c1ccc(CNc2nc3cc(N)cc(N)c3nc2-c2ccccc2)cc1)C(=O)OCC (stereo not drawn)
[1]
  TGI: > 86.4 µM
[3]
  TGI: > 100 µM
[4]
  TGI: > 100 µM
[5]
  TGI: 35.3 µM
[9]
  TGI: 66.6 µM
[6]
  TGI: > 68.1 µM
[7]
  TGI: 9.43 µM
[8]
  TGI: 42 µM
[10]
  TGI: > 100 µM

## O=[N+]([O-])c1ccc(NC2OCC(O)C(O)C2O)cc1 (stereo not drawn)
[2]
  TGI: > 100 µM
[3]
  TGI: > 100 µM
[4]
  TGI: > 100 µM
[5]
  TGI: > 100 µM
[9]
  TGI: > 100 µM
[7]
  TGI: > 100 µM
[8]
  TGI: > 100 µM
[10]
  TGI: > 100 µM

## C=C(C)CCC1CCCCC(CN(C)C)C1=O (stereo not drawn)
[1]
  TGI: > 100 µM
[2]
  TGI: > 100 µM
[3]
  TGI: > 100 µM
[4]
  TGI: > 100 µM
[9]
  TGI: > 100 µM
[6]
  TGI: > 100 µM
[7]
  TGI: > 100 µM
[8]
  TGI: > 100 µM
[10]
  TGI: > 100 µM

## COC1=CC(=O)C(O)=C(C[C@@]2(C)[C@@H]3CCC[C@H](COC(=O)CCCCCNC(=O)OC(C)(C)C)[C@@]3(C)CC[C@@H]2C)C1=O
[1]
  TGI: > 10 µM
[2]
  TGI: 5.29 µM
[4]
  TGI: > 10 µM
[5]
  TGI: > 10 µM
[9]
  TGI: > 10 µM
[6]
  TGI: > 10 µM
[7]
  TGI: > 10 µM
[8]
  TGI: > 10 µM
[10]
  TGI: > 10 µM

## CC1=C/C(=N/N2C(=O)/C(=C/c3ccc(Cl)cc3)N=C2c2ccccc2)CC(C)(C)C1
[1]
  TGI: > 100 µM
[3]
  TGI: > 100 µM
[4]
  TGI: > 100 µM
[5]
  TGI: > 100 µM
[9]
  TGI: > 100 µM
[6]
  TGI: > 100 µM
[7]
  TGI: > 100 µM
[8]
  TGI: > 100 µM
[10]
  TGI: > 100 µM

## CN1CCN(CC(=O)Nc2ccc3ncnc(Nc4ccc(Oc5cccc(C(F)(F)F)c5)c(Cl)c4)c3c2)CC1
[1]
  GI50: 1.58 µM
  TGI: 2.97 µM
[3]
  GI50: 1.2 µM
  TGI: 2.52 µM
[4]
  GI50: 1.2 µM
  TGI: 2.46 µM
[5]
  GI50: 1.56 µM
  TGI: 3.05 µM
[9]
  GI50: 1.71 µM
  TGI: 3.16 µM
[6]
  GI50: 1.78 µM
  TGI: 3.3 µM
[8]
  GI50: 1.51 µM
  TGI: 3.02 µM
[10]
  GI50: 1.72 µM
  TGI: 3.25 µM

## [Cl-].[Rh+3].c1ccc(-c2ccnc3c2ccc2c(-c4ccccc4)ccnc23)cc1.c1ccc(-c2ccnc3c2ccc2c(-c4ccccc4)ccnc23)cc1.c1ccc(-c2ccnc3c2ccc2c(-c4ccccc4)ccnc23)cc1
[2]
  TGI: > 100 µM
[3]
  TGI: > 100 µM
[4]
  TGI: > 100 µM
[5]
  TGI: 82.9 µM
[9]
  TGI: > 100 µM
[7]
  TGI: > 100 µM
[8]
  TGI: > 100 µM
[10]
  TGI: > 100 µM

## O=C(CSc1nnc(Cc2ccccc2)o1)Nc1ccc(Cl)cc1
[2]
  TGI: > 100 µM
[3]
  TGI: > 100 µM
[4]
  TGI: > 100 µM
[5]
  TGI: > 100 µM
[9]
  TGI: > 100 µM
[7]
  TGI: > 100 µM
[8]
  TGI: > 100 µM
[10]
  TGI: > 100 µM

## CC(C)CCCC(C)[C@H]1CC[C@H]2[C@@H]3CC[C@H]4C[C@@H](CCC=C(c5cc(Cl)c(O)c(C(=O)OC(C)(C)C)c5)c5cc(Cl)c(O)c(C(=O)OC(C)(C)C)c5)CC[C@]4(C)[C@H]3CC[C@]12C (stereo partly drawn)
[1]
  TGI: > 50 µM
[2]
  TGI: > 50 µM
[3]
  TGI: > 50 µM
[9]
  TGI: > 50 µM
[6]
  TGI: > 50 µM
[7]
  TGI: > 50 µM
[8]
  TGI: > 50 µM
[10]
  TGI: > 50 µM

## CCCn1cnc2c(NN=O)ncnc21
[1]
  TGI: > 100 µM
[3]
  TGI: > 100 µM
[4]
  TGI: > 100 µM
[5]
  TGI: > 100 µM
[9]
  TGI: > 100 µM
[6]
  TGI: > 100 µM
[7]
  TGI: > 100 µM
[8]
  TGI: > 100 µM
[10]
  TGI: > 100 µM

## O=C(O)Cc1ccc(N2N=C(c3ccccc3)CC2=O)cc1
[2]
  TGI: > 100 µM
[3]
  TGI: > 100 µM
[4]
  TGI: > 100 µM
[5]
  TGI: > 100 µM
[9]
  TGI: > 100 µM
[6]
  TGI: > 100 µM
[7]
  TGI: > 100 µM
[8]
  TGI: > 100 µM
[10]
  TGI: > 100 µM

## Oc1ccc2c(c1)OCC(O)(c1ccccc1O)C2 (stereo not drawn)
[1]
  TGI: > 100 µM
[2]
  TGI: > 100 µM
[3]
  TGI: > 100 µM
[4]
  TGI: > 100 µM
[9]
  TGI: > 100 µM
[6]
  TGI: > 100 µM
[7]
  TGI: > 100 µM
[8]
  TGI: > 100 µM
[10]
  TGI: > 100 µM

## O=c1ccc2ccccc2o1
[2]
  TGI: > 100 µM
[3]
  TGI: > 100 µM
[4]
  TGI: > 100 µM
[5]
  TGI: > 100 µM
[9]
  TGI: > 100 µM
[7]
  TGI: > 100 µM
[8]
  TGI: > 100 µM
[10]
  TGI: > 100 µM

## CN(C)c1ccc(/C=C/c2sc3ccc4ccccc4c3[n+]2C)cc1
[2]
  GI50: 0.33 µM
  TGI: > 100 µM
[3]
  GI50: 0.692 µM
  TGI: > 31.5 µM
[4]
  GI50: 0.401 µM
  TGI: 3.84 µM
[6]
  GI50: 0.526 µM
  TGI: 2.62 µM

## CN1N=C2c3ccccc3CC[C@H]2C1c1ccccc1 (stereo partly drawn)
[2]
  TGI: > 100 µM
[3]
  TGI: > 100 µM
[4]
  TGI: > 100 µM
[5]
  TGI: 72.9 µM
[9]
  TGI: > 100 µM
[7]
  TGI: > 100 µM
[8]
  TGI: > 100 µM
[10]
  TGI: > 100 µM

## Cn1c(C(C#N)c2cc(Cl)ncn2)nc2ccccc21 (stereo not drawn)
[1]
  TGI: > 100 µM
[3]
  TGI: > 100 µM
[4]
  TGI: > 100 µM
[5]
  TGI: > 100 µM
[9]
  TGI: > 100 µM
[6]
  TGI: > 100 µM
[7]
  TGI: > 100 µM
[8]
  TGI: > 100 µM
[10]
  TGI: > 100 µM

## CCSc1nc2sc(C)c(C)c2c(=O)n1-c1ccc(C(=O)O)cc1
[2]
  TGI: > 100 µM
[3]
  TGI: > 100 µM
[4]
  TGI: > 100 µM
[5]
  TGI: > 100 µM
[9]
  TGI: > 100 µM
[7]
  TGI: > 100 µM
[8]
  TGI: > 100 µM
[10]
  TGI: > 100 µM

## OCCCSc1ccccc1SCCCO
[1]
  TGI: > 100 µM
[2]
  TGI: > 100 µM
[3]
  TGI: > 100 µM
[4]
  TGI: > 100 µM
[9]
  TGI: > 100 µM
[6]
  TGI: > 100 µM
[7]
  TGI: > 100 µM
[8]
  TGI: > 100 µM
[10]
  TGI: > 100 µM

## C#CC(O)/C=C/CCCCCCC#CC/C=C\CC#CCCCCCC/C=C/C(O)C#C (stereo not drawn)
[1]
  TGI: 5.4 µM
[2]
  TGI: 0.722 µM
[3]
  TGI: 6.94 µM
[4]
  TGI: 0.915 µM
[9]
  TGI: 4.58 µM
[6]
  TGI: 8.9 µM
[7]
  TGI: 0.371 µM
[8]
  TGI: 10.1 µM
[10]
  TGI: 7.3 µM
